Several values for one entry are separate records, joined by “and”; a condition that tells them apart may be missing. Equal entries are not always repeated. Toxic doses and inconclusive results are not listed.
System: BDF1 mice, P388 leukemia ip, median survival T/C
Assay: NCI In Vivo Anticancer Drug Screen. Data for tumor model P388 Leukemia (intraperitoneal) in B6D2F1 (BDF1) mice
Conditions: endpoint: median survival time, higher = longer survival
Method in brief: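 Mice carrying the transplantable tumour receive compound or vehicle. Survival is followed in each arm, and the treated measure is divided by the vehicle measure.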

[1] = dose: 50.0 mg/kg/injection, schedule: Q01DX009 (ip), vehicle: saline with Tween-80
[2] = dose: 100.0 mg/kg/injection, schedule: Q01DX009 (ip), vehicle: saline with Tween-80
[3] = dose: 12.5 mg/kg/injection, schedule: Q01DX009 (ip), vehicle: Klucel (hydroxypropylcellulose) (HPC)
[4] = dose: 25.0 mg/kg/injection, schedule: Q01DX009 (ip), vehicle: Klucel (hydroxypropylcellulose) (HPC)
[5] = dose: 50.0 mg/kg/injection, schedule: Q01DX009 (ip), vehicle: Klucel (hydroxypropylcellulose) (HPC)
[6] = dose: 50.0 mg/kg/injection, schedule: Q04DX003 (ip), vehicle: saline with Tween-80
[7] = dose: 100.0 mg/kg/injection, schedule: Q04DX003 (ip), vehicle: saline with Tween-80
[8] = dose: 200.0 mg/kg/injection, schedule: Q01DX009 (ip), vehicle: saline with Tween-80
[9] = dose: 200.0 mg/kg/injection, schedule: Q04DX003 (ip), vehicle: saline with Tween-80
[10] = dose: 100.0 mg/kg/injection, schedule: Q04DX003 (ip), vehicle: saline
[11] = dose: 200.0 mg/kg/injection, schedule: Q04DX003 (ip), vehicle: saline
[12] = dose: 400.0 mg/kg/injection, schedule: Q04DX003 (ip), vehicle: saline
[13] = dose: 50.0 mg/kg/injection, schedule: Q01DX001 (ip), vehicle: saline with Tween-80

COc1ccc(C(Cn2ccnc2)Sc2ccc(Cl)c(Cl)c2)cc1 (centres undefined)
T/C (dose: 12.5 mg/kg/injection, schedule: Q01DX009 (ip), vehicle: saline with Tween-80): 105 % of control
T/C (dose: 25.0 mg/kg/injection, schedule: Q01DX009 (ip), vehicle: saline with Tween-80): 110 % of control
T/C [1]: 120 % of control
T/C [2]: 93 % of control and 119 % of control

O=[N+]([O-])/C=C/c1c(Cl)cccc1Cl
T/C (dose: 50.0 mg/kg/injection, schedule: Q04DX003 (ip), vehicle: other): 122 % of control

COc1ccc(OC)c(/C=C/c2ccnc3ccccc23)c1
T/C (dose: 50.0 mg/kg/injection, schedule: Q01DX010 (ip), vehicle: saline): 95 % of control
T/C (dose: 100.0 mg/kg/injection, schedule: Q01DX010 (ip), vehicle: saline): 110 % of control
T/C (dose: 200.0 mg/kg/injection, schedule: Q01DX010 (ip), vehicle: saline): 150 % of control
T/C (dose: 400.0 mg/kg/injection, schedule: Q01DX010 (ip), vehicle: saline): 165 % of control

N#CC(C#N)=Cc1ccc(C=C(C#N)C#N)cc1
T/C [3]: 100 % of control
T/C [4]: 95 % of control
T/C [5]: 90 % of control
T/C (dose: 100.0 mg/kg/injection, schedule: Q04DX003 (ip), vehicle: Klucel (hydroxypropylcellulose) (HPC)): 100 % of control
T/C (dose: 200.0 mg/kg/injection, schedule: Q04DX003 (ip), vehicle: Klucel (hydroxypropylcellulose) (HPC)): 104 % of control
T/C (dose: 400.0 mg/kg/injection, schedule: Q04DX003 (ip), vehicle: Klucel (hydroxypropylcellulose) (HPC)): 121 % of control

CCN(CC)CCCC(C)NC(=O)c1ccc(Cl)nc1 (centres undefined)
T/C (dose: 37.5 mg/kg/injection, schedule: Q01DX009 (ip), vehicle: saline with Tween-80): 107 % of control
T/C [1]: 113 % of control
T/C [6]: 103 % of control
T/C (dose: 75.0 mg/kg/injection, schedule: Q01DX009 (ip), vehicle: saline with Tween-80): 96 % of control
T/C [7]: 107 % of control
T/C (dose: 150.0 mg/kg/injection, schedule: Q01DX009 (ip), vehicle: saline with Tween-80): 117 % of control
T/C [8]: 97 % of control
T/C [9]: 110 % of control

CC(C)CCc1cc(O)c(CCC(C)C)cc1O
T/C (dose: 0.78 mg/kg/injection, schedule: Q01DX009 (ip), vehicle: saline with Tween-80): 101 % of control
T/C (dose: 1.56 mg/kg/injection, schedule: Q01DX009 (ip), vehicle: saline with Tween-80): 102 % of control
T/C (dose: 3.12 mg/kg/injection, schedule: Q01DX009 (ip), vehicle: saline with Tween-80): 102 % of control
T/C (dose: 6.25 mg/kg/injection, schedule: Q01DX009 (ip), vehicle: saline with Tween-80): 104 % of control

C[C@]12C=CC(=O)C=C1CC[C@@H]1[C@@H]2[C@@H](O)C[C@@]2(C)[C@H]1CC[C@]2(O)C(=O)CO
T/C (dose: 12.5 mg/kg/injection, schedule: Q01DX010 (sc), vehicle: steriod suspending solution): 109 % of control and 120 % of control
T/C (dose: 25.0 mg/kg/injection, schedule: Q01DX010 (sc), vehicle: steriod suspending solution): 109 % of control and 110 % of control
T/C (dose: 50.0 mg/kg/injection, schedule: Q01DX010 (sc), vehicle: steriod suspending solution): 113 % of control and 120 % of control
T/C (dose: 100.0 mg/kg/injection, schedule: Q01DX010 (sc), vehicle: steriod suspending solution): 118 % of control and 120 % of control

O=S(=O)(O)CCC(CO)(CO)CO
T/C [10]: 100 % of control
T/C [11]: 95 % of control
T/C [12]: 95 % of control

CCCCCCCCCCCCCCCCOc1ccc(CC)cc1
T/C [13]: 95 % of control
T/C (dose: 100.0 mg/kg/injection, schedule: Q01DX001 (ip), vehicle: saline with Tween-80): 90 % of control
T/C (dose: 200.0 mg/kg/injection, schedule: Q01DX001 (ip), vehicle: saline with Tween-80): 100 % of control

O=C(NO)c1ccc(O)c(O)c1
T/C (dose: 200.0 mg/kg/injection, schedule: Q01DX005 (ip), vehicle: water): 153 % of control
T/C (dose: 400.0 mg/kg/injection, schedule: Q01DX005 (ip), vehicle: water): 166 % of control

c1ccc2c[n+]3ccccc3cc2c1
T/C (dose: 6.25 mg/kg/injection, schedule: Q01DX009 (ip), vehicle: saline): 95 % of control
T/C (dose: 8.75 mg/kg/injection, schedule: Q04DX003 (ip), vehicle: saline): 100 % of control
T/C [3]: 100 % of control
T/C (dose: 12.5 mg/kg/injection, schedule: Q01DX009 (ip), vehicle: saline): 104 % of control
T/C (dose: 17.5 mg/kg/injection, schedule: Q04DX003 (ip), vehicle: saline): 95 % of control
T/C [4]: 95 % of control

O/N=c1/cc(-c2cccs2)ss1
T/C [1]: 109 % of control
T/C [2]: 104 % of control
T/C [10]: 117 % of control
T/C [8]: 87 % of control
T/C [11]: 118 % of control
T/C (dose: 400.0 mg/kg/injection, schedule: Q01DX009 (ip), vehicle: saline with Tween-80): 97 % of control
T/C [12]: 124 % of control

ClC(Cl)=C1OCCO1
T/C [1]: 104 % of control
T/C [2]: 98 % of control
T/C [8]: 100 % of control

[N-]=[N+]=C1C(=O)NC(=O)N2C3CC(O)C(COC12)O3 (centres undefined)
T/C (dose: 132.0 mg/kg/injection, schedule: Q01DX009 (ip), vehicle: saline with Tween-80): 154 % of control
T/C [8]: 159 % of control and 170 % of control
T/C (dose: 300.0 mg/kg/injection, schedule: Q01DX009 (ip), vehicle: saline with Tween-80): 170 % of control and 177 % of control

C[N+](C)(C)CC(O)CC#N (centres undefined)
T/C [3]: 100 % of control
T/C [4]: 100 % of control
T/C [5]: 90 % of control

O=C1c2ccccc2C(=O)c2c(O)c(NCCCN3CCOCC3)cc(O)c21
T/C (dose: 50.0 mg/kg/injection, schedule: Q01DX005 (ip), vehicle: saline with Tween-80): 99 % of control
T/C (dose: 100.0 mg/kg/injection, schedule: Q01DX005 (ip), vehicle: saline with Tween-80): 94 % of control
T/C (dose: 200.0 mg/kg/injection, schedule: Q01DX005 (ip), vehicle: saline with Tween-80): 94 % of control

COc1cc([C@@H]2c3cc4c(c(O)c3C[C@H]3COC(=O)[C@@H]32)OCO4)cc(OC)c1OC
T/C (dose: 0.5 mg/kg/injection, schedule: Q01DX001 (ip), vehicle: other): 115 % of control
T/C (dose: 0.5 mg/kg/injection, schedule: Q01DX001 (ip), vehicle: saline): 90 % of control
T/C (dose: 0.5 mg/kg/injection, schedule: Q01DX010 (ip), vehicle: other): 122 % of control
T/C (dose: 1.0 mg/kg/injection, schedule: Q01DX001 (ip), vehicle: other): 121 % of control
T/C (dose: 1.0 mg/kg/injection, schedule: Q01DX001 (ip), vehicle: saline): 109 % of control
T/C (dose: 1.0 mg/kg/injection, schedule: Q01DX010 (ip), vehicle: other): 150 % of control
T/C (dose: 2.0 mg/kg/injection, schedule: Q01DX001 (ip), vehicle: saline): 118 % of control
T/C (dose: 2.0 mg/kg/injection, schedule: Q01DX010 (ip), vehicle: other): 168 % of control
T/C (dose: 2.0 mg/kg/injection, schedule: Q01DX010 (ip), vehicle: saline): 104 % of control
T/C (dose: 4.0 mg/kg/injection, schedule: Q01DX001 (ip), vehicle: saline): 118 % of control

COc1ccc2c(c1OC)CCN1C3=C(CC4(CC3)OCCO4)C(=O)CC21 (centres undefined)
T/C (dose: 100.0 mg/kg/injection, schedule: Q04DX003 (ip), vehicle: saline sonified): 105 % of control
T/C (dose: 200.0 mg/kg/injection, schedule: Q04DX003 (ip), vehicle: saline sonified): 100 % of control
T/C (dose: 400.0 mg/kg/injection, schedule: Q04DX003 (ip), vehicle: saline sonified): 90 % of control

O=C(O)CCC(=O)CCl
T/C (dose: 12.0 mg/kg/injection, schedule: Q01DX009 (ip), vehicle: saline): 120 % of control

CCOC(=O)/C(=C/C(C#N)=C/N(C)C)CC
T/C (dose: 100.0 mg/kg/injection, schedule: Q01DX001 (ip), vehicle: other): 100 % of control
T/C (dose: 200.0 mg/kg/injection, schedule: Q01DX001 (ip), vehicle: other): 109 % of control
T/C (dose: 400.0 mg/kg/injection, schedule: Q01DX001 (ip), vehicle: other): 109 % of control

CC1(C)C2CCC1(C)C1OC(=O)NN=C21 (centres undefined)
T/C (dose: 12.5 mg/kg/injection, schedule: Q01DX001 (ip), vehicle: saline with Tween-80): 100 % of control
T/C (dose: 25.0 mg/kg/injection, schedule: Q01DX001 (ip), vehicle: saline with Tween-80): 98 % of control
T/C [13]: 103 % of control

NC(=S)S/C=C/C(=O)O
T/C [1]: 96 % of control
T/C [6]: 100 % of control
T/C [2]: 94 % of control
T/C [7]: 107 % of control
T/C [8]: 100 % of control
T/C [9]: 103 % of control
T/C (dose: 400.0 mg/kg/injection, schedule: Q04DX003 (ip), vehicle: saline with Tween-80): 115 % of control

CCOC(=O)/C(C#N)=C/C=C1C=CN(C)C=C1
T/C [1]: 86 % of control
T/C [2]: 105 % of control
T/C [8]: 116 % of control

Reference: PubChem BioAssay AID328 (DTP/NCI, 2004)
